# Measured values from PubChem BioAssay AID2060496 (Molecular Pharmacology Branch, DTP, NCI, 2025).
# System: 276233-004-R-J1-PDC complex spheroid viability
# Assay: Anticancer human tumor 276233-004-R-J1-PDC patient-derived colon adenocarcinoma cell line growth inhibition [GQUAD]
# Settings: for IC50: curve of first compound; for viability, T/C: stronger effect = lower value
# Source text: DNA G-quadruplex Stabilizer Agents in Combinations in Complex Spheroids
# A high-throughput screen of multi-cell type tumor spheroids was designed to identify active combinations of DNA G-quadruplex stabilizer agents and targeted small molecules. Complex spheroids include a stromal component modeled by human endothelial cells (HUVEC) and fibroblasts modeled by human mesenchymal stem cells (MSCs). The concentration ranges selected for each drug and investigational agent were based upon clinically achievable concentrations if the clinical Cmax of the agent was known.
# Compounds. The drugs and investigational agents: pidnarulex (CX-5461; NSC782164), APTO-253 (NSC789042), BRACO-19 (NSC847499), peposertib (NSC802822), ceralasertib (NSC780249), elimusertib (NSC800525), camonsertib (NSC841442), AZD-1390 (NSC803789), olaparib (NSC753686), talazoparib (NSC767125), ART-558 (NSC835418), sotorasib (NSC818433), MRTX-1133 (NSC836407), SN-38 (NSC673596), topotecan (NSC609699), etoposide (NSC141540), doxorubicin (NSC123127), gemcitabine (NSC613327), 5-fluorouracil (NSC19893), paclitaxel (NSC125973), vemurafenib (NSC761431), panobinostat (NSC761190), R-306465 (JNJ-16241199; NSC773264), adavosertib (NSC754352), TP-3654 (NSC805149), carboplatin (NSC241240), KSQ-4279 (NSC840948), and staurosporine (NSC755774) were obtained from the National Cancer Institute (NCI) Developmental Therapeutics Program Chemical Repository (34). The FDA-approved anticancer drug set is available from the NCI Developmental Therapeutics Program. […] The stock solutions were prepared in dimethyl sulfoxide (DMSO, Sigma-Aldrich, St. Louis, MO, cat. D2650) at 800-fold the tested concentration and stored at -70 degrees C prior to their use. All drugs and investigational agents were tested over a range starting from a high concentration at or near the clinical Cmax and decreasing in half-log increments. If the clinical Cmax for an agent had not been determined, the highest concentration tested was 10 microM.
# 2.3 Cell Culture. All cells were maintained in an incubator at 37 degrees C and 5% CO2 with 95% humidity. The PDC lines were cultured according to standard operating procedures established by the NCI PDMR. All PDCs were thawed and cultured in Matrigel-coated flasks prepared with a working solution of 1X Ham's F-12 nutrient mix, without supplementation (Invitrogen, cat. 11765054), 100 U/mL penicillin-streptomycin (Invitrogen, cat. 15140122), and 2.5% Matrigel (Corning Inc., cat. 354248) for the first three passages. The 857933-349-R-J2-PDC line was cultured in 6C/Colon 1B media, which includes advanced DMEM/F-12 (Thermo Fisher Scientific, cat. 12634028), 10 mM HEPES (Thermo Fisher Scientific, cat. 15630080), 1X GlutaMAX supplement (Thermo Fisher Scientific, cat. 35050061), 0.1 mg/mL primocin (InvivoGen, cat. ant-pm-2), 10% defined fetal bovine serum, heat inactivated (HyClone Laboratories Inc., cat. SH30070.03HI), 50% L-WRN conditioned media (ATCC, cat. CRL-3276), 1.25 mM N-Acetyl-L-cysteine (Sigma-Aldrich, cat. A9165), 10 mM nicotinamide (Sigma-Aldrich, cat. N0636), 1X B-27 supplement (Thermo Fisher Scientific, cat. 17504044), 1X N-2 supplement (Thermo Fisher Scientific, cat. 17502048), 10 microM Y-27632 dihydrochloride (Tocris Bioscience, cat. 1254), and 50 ng/mL human EGF recombinant protein (Thermo Fisher Scientific, cat. PHG0311). The 485176-168-R4-J1-PDC line was cultured in Panc media, which includes all 6C/Colon 1B media components plus 100 ng/mL human FGF-10 (Thermo Fisher Scientific, cat. 100-26), 500 nM SB-431542 (Selleckchem, cat. S1067), and gastrin (Tocris, cat. 3006).
# […]
# 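Note: spheroids exposed to drugs for seven days.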
# 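Throughout, for viability, T/C: 100% = DMSO vehicle control viability.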
compound,measurement,setting,value
O=c1[nH]cc(F)c(=O)[nH]1 + CN(C)c1ccc(Nc2c3ccc(NC(=O)CCN4CCCC4)cc3nc3cc(NC(=O)CCN4CCCC4)ccc23)cc1,IC50,second compound 0.0316 µM,> 10 µM
same,IC50,second compound 0.1 µM,> 10 µM
same,IC50,second compound 0.316 µM,> 10 µM
same,IC50,second compound 1 µM,> 10 µM
same,IC50,second compound 3.16 µM,> 10 µM
same,IC50,second compound 10 µM,> 10 µM
same,"viability, T/C","second compound 0.0316 µM, first compound 0.0316 µM",93.7%
same,"viability, T/C","second compound 0.0316 µM, first compound 0.1 µM",83.7%
same,"viability, T/C","second compound 0.0316 µM, first compound 0.316 µM",108%
same,"viability, T/C","second compound 0.0316 µM, first compound 1 µM",108%
same,"viability, T/C","second compound 0.0316 µM, first compound 3.16 µM",90.2%
same,"viability, T/C","second compound 0.0316 µM, first compound 10 µM",103%
same,"viability, T/C","second compound 0.1 µM, first compound 0.0316 µM",92%
same,"viability, T/C","second compound 0.1 µM, first compound 0.1 µM",76.5%
same,"viability, T/C","second compound 0.1 µM, first compound 0.316 µM",80.5%
same,"viability, T/C","second compound 0.1 µM, first compound 1 µM",88.5%
same,"viability, T/C","second compound 0.1 µM, first compound 3.16 µM",75.1%
same,"viability, T/C","second compound 0.1 µM, first compound 10 µM",103%
same,"viability, T/C","second compound 0.316 µM, first compound 0.0316 µM",69.1%
same,"viability, T/C","second compound 0.316 µM, first compound 0.1 µM",62.3%
same,"viability, T/C","second compound 0.316 µM, first compound 0.316 µM",60.1%
same,"viability, T/C","second compound 0.316 µM, first compound 1 µM",61%
same,"viability, T/C","second compound 0.316 µM, first compound 3.16 µM",72.2%
same,"viability, T/C","second compound 0.316 µM, first compound 10 µM",61.8%
same,"viability, T/C","second compound 1 µM, first compound 0.0316 µM",66.8%
same,"viability, T/C","second compound 1 µM, first compound 0.1 µM",62.9%
same,"viability, T/C","second compound 1 µM, first compound 0.316 µM",63.7%
same,"viability, T/C","second compound 1 µM, first compound 1 µM",66.2%
same,"viability, T/C","second compound 1 µM, first compound 3.16 µM",52.2%
same,"viability, T/C","second compound 1 µM, first compound 10 µM",59.3%
same,"viability, T/C","second compound 3.16 µM, first compound 0.0316 µM",59.3%
same,"viability, T/C","second compound 3.16 µM, first compound 0.1 µM",58.5%
same,"viability, T/C","second compound 3.16 µM, first compound 0.316 µM",54.9%
same,"viability, T/C","second compound 3.16 µM, first compound 1 µM",57.9%
same,"viability, T/C","second compound 3.16 µM, first compound 3.16 µM",69.8%
same,"viability, T/C","second compound 3.16 µM, first compound 10 µM",62.4%
same,"viability, T/C","second compound 10 µM, first compound 0.0316 µM",49.8%
same,"viability, T/C","second compound 10 µM, first compound 0.1 µM",54.9%
same,"viability, T/C","second compound 10 µM, first compound 0.316 µM",51.5%
same,"viability, T/C","second compound 10 µM, first compound 1 µM",46.1%
same,"viability, T/C","second compound 10 µM, first compound 3.16 µM",51.3%
same,"viability, T/C","second compound 10 µM, first compound 10 µM",59.1%
